55 molecules from patent US7553864B2, “Compounds for the treatment of inflammatory disorders and microbial diseases” (Schering Corporation, priority 2005, dated 2009) can be followed below.

Each structure is given as a SMILES string. Where two headings read alike, the source gives them in different places.

The target in this assay is T1, ADMP (ADAMTS-4-5) (Homo sapiens, UniProt O75173).
T1 construct: purchased Calbiochem PF113
T1 sequence (O75173 213-837): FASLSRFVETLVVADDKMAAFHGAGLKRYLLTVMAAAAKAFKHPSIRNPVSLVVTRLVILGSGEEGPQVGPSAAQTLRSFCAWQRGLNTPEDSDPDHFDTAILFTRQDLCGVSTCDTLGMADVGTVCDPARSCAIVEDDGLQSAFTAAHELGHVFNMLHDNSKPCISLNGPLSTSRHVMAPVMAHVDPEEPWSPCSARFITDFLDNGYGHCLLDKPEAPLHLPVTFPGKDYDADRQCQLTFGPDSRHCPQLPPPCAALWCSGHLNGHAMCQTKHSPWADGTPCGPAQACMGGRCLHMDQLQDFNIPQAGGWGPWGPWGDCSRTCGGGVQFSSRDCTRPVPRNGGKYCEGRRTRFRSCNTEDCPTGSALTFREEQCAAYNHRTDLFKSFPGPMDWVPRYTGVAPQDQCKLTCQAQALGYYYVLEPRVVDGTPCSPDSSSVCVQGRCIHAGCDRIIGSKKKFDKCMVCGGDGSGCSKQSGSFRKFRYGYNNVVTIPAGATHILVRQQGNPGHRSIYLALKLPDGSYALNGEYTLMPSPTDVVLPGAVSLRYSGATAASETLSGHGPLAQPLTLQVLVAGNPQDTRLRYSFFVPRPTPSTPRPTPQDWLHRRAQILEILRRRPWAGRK
Description: ADMP activity assay (procedures of WO00/05256). The class given is biochemical. The text has this: The procedures of International Patent Publication WO00/05256 (published Feb. 3, 2000) were followed for detection of ADMP Activity and for measuring the IC50 of the compounds of the present invention. This was indicative of activity against a desintgrin and metallopropeinase thrombo spondin 4 and 5 (ADAMTS-4-5).
The enzyme was purchased commercially from Calbiochem (Cat# PF113) and the peptide substrate described in the patent was custom-ordered from AnaSpec.

Setting [1] is: read-out: IC50 rating (ADMP inhibitory activity).
Where [2] appears, read: read-out: IC50 (ADMP inhibition).

For the molecule `C[C@H](NC(=O)[C@H](O)[C@@H](O)C(=O)N1CCN(c2ccc(O)cc2)CC1)c1ccc(Br)cc1` [Compound 150], the IC50 under setting [1] fell in the range of 1000 to 5000 nM.

As to `Cc1ccc(N2CCN(C(=O)[C@H](O)[C@@H](O)C(=O)N[C@@H](C)c3ccc(Br)cc3)CC2)cc1C` [Compound 142], the IC50 under setting [1] was 250 to 1000 nM.

Turning to `C[C@H](NC(=O)[C@H](O)[C@@H](O)C(=O)N1CCCC1c1ccccc1)c1ccc(Br)cc1` (stereo partly drawn) [Compound 172], under setting [1], the IC50 lay in the range of 250 to 1000 nM.

For `COc1ccc(N2CCN(C(=O)[C@H](O)[C@@H](O)C(=O)NCc3ccc(Cl)cc3)CC2)cc1` [Compound 132], under setting [1], the IC50 lay in the range of 250 to 1000 nM.

Turning to `C[C@H](NC(=O)C(O)C(O)C(=O)N1CCc2ccccc2C1)c1ccc(I)cc1` (stereo in doubt) [Compound 210], under setting [1], the IC50 is 250 to 1000 nM.

Regarding `CN(Cc1ccccc1)C(=O)[C@H](O)[C@@H](O)C(=O)NCc1ccc(Cl)cc1` [Compound 110], the IC50 under setting [1] lay within 250 to 1000 nM.

For the molecule `O=C(NCc1cccc(I)c1)C(O)C(O)C(=O)N1CCc2ccccc2C1` (stereo not drawn) [Compound 212], under setting [1], the IC50 is above 5000 nM.

Turning to `CC(=O)c1ccc(N2CCN(C(=O)[C@H](O)[C@@H](O)C(=O)NCc3ccc(Cl)cc3)CC2)cc1` [Compound 118], the IC50 under setting [1] is above 5000 nM.

As for `O=C(NCc1ccc(I)cc1)[C@H](O)[C@@H](O)C(=O)N1CCc2ccccc2C1` [Compound 204], the IC50 is 90 nM under setting [2] and below 250 nM under setting [1].

`COc1ccc(N2CCN(C(=O)[C@H](O)[C@@H](O)C(=O)N[C@@H](C)c3ccc(Br)cc3)CC2)cc1` [Compound 130]: the IC50 is 170 nM under setting [2] and below 250 nM under setting [1].

Consider `O=C(NCc1cccc(I)c1)[C@H](O)[C@@H](O)C(=O)N1CCc2ccccc2C1` [Compound 181], for which, under setting [1], the IC50 was above 5000 nM.

Turning to `C[C@H](NC(=O)C(O)C(O)C(=O)N1Cc2ccccc2C1)c1cccc(O)c1` (stereo partly drawn) [Compound 217], under setting [1], the IC50 lay within 1000 to 5000 nM.

`C[C@H](NC(=O)C(O)C(O)C(=O)N1CCc2ccccc2C1)c1cccc(I)c1` (stereo partly drawn) [Compound 219]: the IC50 under setting [1] was in the range of 1000 to 5000 nM.

As for `C[C@H](NC(=O)C(O)C(O)C(=O)N1CCc2ccccc2C1)c1cccc(Br)c1` (stereo partly drawn) [Compound 218], the IC50 under setting [1] was above 5000 nM.

Consider `O=C(NCc1ccc(C(F)(F)F)cc1)[C@H](O)[C@@H](O)C(=O)N1CCN(c2ccc(F)cc2)CC1` [Compound 126], for which the IC50 under setting [1] lay within 250 to 1000 nM.

For `O=C(NCc1ccc(Br)cc1)[C@H](O)[C@@H](O)C(=O)N1CCc2ccccc2C1` [Compound 184], the IC50 under setting [1] fell in the range of 250 to 1000 nM.

As for `C[C@H](NC(=O)[C@H](O)[C@@H](O)C(=O)N1CCc2c([nH]c3ccccc23)C1)c1ccc(Br)cc1` [Compound 169], the IC50 under setting [1] lay within 250 to 1000 nM.

In turn, `C[C@H](NC(=O)[C@H](O)[C@@H](O)C(=O)N1CCC(N2C(=O)Cc3ccccc32)CC1)c1ccc(Br)cc1` [Compound 165] showed an IC50 of 1000 to 5000 nM.

For `COc1ccc(N2CCN(C(=O)[C@H](O)[C@@H](O)C(=O)NCCc3cccc(Cl)c3)CC2)cc1` [Compound 131], under setting [1], the IC50 was 250 to 1000 nM.

On to `COc1cc2c(cc1OC)CN(C(=O)[C@H](O)[C@@H](O)C(=O)N[C@@H](C)c1ccc(Br)cc1)CC2` [Compound 207], for which the IC50 reads like this: under setting [2], 96 nM; under setting [1], below 250 nM.

Consider `CC(NC(=O)[C@H](O)[C@@H](O)C(=O)N1CCc2ccccc2C1)c1ccc(S(C)(=O)=O)cc1` (stereo partly drawn) [Compound 186], for which the IC50 under setting [1] was above 5000 nM.

For the molecule `C[C@H](NC(=O)[C@H](O)[C@@H](O)C(=O)N1CCN(c2ccc(F)cc2F)CC1)c1ccc(Br)cc1` [Compound 144], under setting [1], the IC50 was below 250 nM.

In the case of `C[C@H](NC(=O)[C@H](O)[C@@H](O)C(=O)N1CCC(S(=O)(=O)c2ccccc2)CC1)c1ccc(Br)cc1` [Compound 148], the IC50 was 47 nM under setting [2] and below 250 nM under setting [1].

Regarding `C[C@H](NC(=O)[C@H](O)[C@@H](O)C(=O)N1Cc2ccccc2C[C@@H]1CO)c1ccc(Br)cc1` [Compound 138], the IC50 under setting [2] was found to be 190 nM and the IC50 under setting [1] is below 250 nM.

Regarding `CN(C)CCN(C)C(=O)[C@H](O)[C@@H](O)C(=O)NCc1ccc(C(F)(F)F)cc1` [Compound 127], under setting [1], the IC50 was above 5000 nM.

`C[C@H](NC(=O)[C@H](O)[C@@H](O)C(=O)N(C)C1CCN(C)CC1)c1ccc(Br)cc1` [Compound 121]: under setting [1], the IC50 lay within 1000 to 5000 nM.

For `C[C@H](NC(=O)[C@H](O)[C@@H](O)C(=O)N1Cc2ccccc2C1)c1ccc(Br)cc1` [Compound 175], the IC50 under setting [1] is 250 to 1000 nM.

As to `COc1ccccc1N1CCN(C(=O)[C@H](O)[C@@H](O)C(=O)N[C@@H](C)c2ccc(Br)cc2)CC1` [Compound 164], the IC50 under setting [1] fell in the range of 250 to 1000 nM.

In the case of `CN1CCC(N(C)C(=O)[C@@H](O)[C@H](O)C(=O)NCc2ccc(I)cc2)CC1` [Compound 189], the concentration for half-maximal inhibition (IC50) under setting [1] was above 5000 nM.

For `C[C@H](NC(=O)[C@H](O)[C@@H](O)C(=O)N(C)C1Cc2ccccc2C1)c1ccc(Br)cc1` [Compound 206], under setting [1], the IC50 fell in the range of 250 to 1000 nM.

For the molecule `C[C@H](NC(=O)[C@H](O)[C@@H](O)C(=O)N1CCCC1c1cccc(Cl)c1)c1ccc(Br)cc1` (stereo partly drawn) [Compound 209], the IC50 under setting [1] is below 250 nM.

For `CN1CCC(N(C)C(=O)[C@H](O)[C@@H](O)C(=O)NCc2ccc(C(F)(F)F)cc2)CC1` [Compound 122], under setting [1], the IC50 was 250 to 1000 nM.

As for `O=C(NCCCCCn1c(C(F)(F)F)nc2ccccc21)C(O)C(O)C(=O)N1CCc2ccccc2C1` (stereo not drawn) [Compound 221], under setting [1], the IC50 is above 5000 nM.

On to `C[C@H](NC(=O)[C@H](O)[C@@H](O)C(=O)N(C)CCc1ccccc1)c1ccc(Br)cc1` [Compound 176], for which, under setting [1], the IC50 was in the range of 250 to 1000 nM.

For the molecule `O=C(NCc1cccc(Br)c1)[C@@H](O)[C@H](O)C(=O)N1CCc2ccccc2C1` [Compound 185], the IC50 under setting [1] was above 5000 nM.

In the case of `CN(C(=O)[C@H](O)[C@@H](O)C(=O)NCc1ccc(C(F)(F)F)cc1)C1CCCCC1` [Compound 125], the IC50 under setting [1] lay within 250 to 1000 nM.

For `C[C@H](NC(=O)[C@H](O)[C@@H](O)C(=O)N1CCc2ccccc2C1)c1ccc(Br)cc1` [Compound 114], under setting [1], the IC50 is below 250 nM.

With `O=C(NCc1ccc(C(F)(F)F)cc1)[C@H](O)[C@@H](O)C(=O)N1CCN(c2cccc(Cl)c2)CC1` [Compound 111], the IC50 under setting [1] lay in the range of 250 to 1000 nM.

Regarding `C[C@H](NC(=O)[C@H](O)[C@@H](O)C(=O)N(C)Cc1cc(Cl)cc(Cl)c1)c1ccc(Br)cc1` [Compound 139], the IC50 under setting [1] fell in the range of 250 to 1000 nM.

Turning to `O=C(NCc1cccc(Br)c1)C(O)C(O)C(=O)N1CCc2ccccc2C1` (stereo not drawn) [Compound 211], under setting [1], the IC50 is above 5000 nM.

With `C[C@H](NC(=O)C(O)C(O)C(=O)N1CCN(c2ccc(O)cc2)CC1)c1ccc(Br)cc1` (stereo partly drawn) [Compound 215], under setting [1], the IC50 lay within 1000 to 5000 nM.

On to `COc1cccc(N2CCN(C(=O)[C@H](O)[C@@H](O)C(=O)N[C@@H](C)c3ccc(Br)cc3)CC2)c1` [Compound 143], for which the IC50 reads like this: under setting [2], 90 nM; under setting [1], below 250 nM.

On to `C[C@H](NC(=O)[C@H](O)[C@@H](O)C(=O)N1CCc2ccccc2C1)c1ccc(-c2ccc(O)cc2)cc1` [Compound 200], for which, under setting [1], the IC50 was below 250 nM.

`CC(NC(=O)[C@H](O)[C@@H](O)C(=O)N1CCc2ccccc2C1)c1ccc(C(F)(F)F)cc1` (stereo partly drawn) [Compound 201]: the IC50 under setting [1] lay within 250 to 1000 nM.

On to `C[C@@H](c1ccc(Br)cc1)N(C)C(=O)[C@@H](O)[C@H](O)C(=O)N1CCc2ccccc2C1` [Compound 187], for which, under setting [1], the IC50 was above 5000 nM.

Regarding `C[C@H](NC(=O)[C@H](O)[C@@H](O)C(=O)N1CCC(c2nc3ccccc3s2)CC1)c1ccc(Br)cc1` [Compound 151], under setting [1], the IC50 was below 250 nM.

Take `C[C@H](NC(=O)[C@H](O)[C@@H](O)C(=O)N[C@H]1c2ccccc2C[C@H]1O)c1ccc(Br)cc1` [Compound 174]: under setting [1], the IC50 was above 5000 nM.

`C[C@H](NC(=O)[C@H](O)[C@@H](O)C(=O)N1CCC(Oc2ccccc2)CC1)c1ccc(Br)cc1` [Compound 149]: the IC50 is 90 nM under setting [2] and below 250 nM under setting [1].

On to `C[C@H](NC(=O)[C@H](O)[C@@H](O)C(=O)N1CCc2ccccc2C1)c1ccc(-c2cccc(N3CCCC3)c2)cc1` [Compound 196], for which, under setting [1], the IC50 is below 250 nM.

Regarding `C[C@H](NC(=O)[C@H](O)[C@@H](O)C(=O)N1CCC2(CC1)C(=O)Nc1ccccc12)c1ccc(Br)cc1` [Compound 152], the IC50 under setting [1] was in the range of 1000 to 5000 nM.

`C[C@H](NC(=O)[C@H](O)[C@@H](O)C(=O)N1CCCC1c1nc2ccccc2s1)c1ccc(Br)cc1` (stereo partly drawn) [Compound 160]: the IC50 reads like this: under setting [2], 160 nM; under setting [1], below 250 nM.

`C[C@H](NC(=O)C(O)C(O)C(=O)N1Cc2ccccc2C1)c1ccc(O)cc1` (stereo partly drawn) [Compound 216]: under setting [1], the half-maximal inhibitory concentration (IC50) was below 250 nM.

For the molecule `COc1ccc(CNC(=O)[C@H](O)[C@@H](O)C(=O)N2CCC[C@H]2CN2CCCC2)cc1` [Compound 134], the IC50 under setting [1] is 250 to 1000 nM.

Take `C[C@H](NC(=O)[C@H](O)[C@@H](O)C(=O)N[C@@H]1c2ccccc2C[C@@H]1O)c1ccc(Br)cc1` [Compound 173]: the IC50 under setting [1] is above 5000 nM.

`CC(=O)C1(c2ccccc2)CCN(C(=O)[C@H](O)[C@@H](O)C(=O)N[C@@H](C)c2ccc(Br)cc2)CC1` [Compound 133] displayed an IC50 below 250 nM.

In general, IC50 refers to the concentration needed to halve the response being measured.
